Data: patent US20240148684A1, “COMPOUNDS AND METHODS FOR TREATING CONGENITAL ERYTHROPOIETIC PORPHYRIA” (RUTGERS, THE STATE UNIVERSITY OF NEW JERSEY, priority 2021, published 2024)

What was measured:
[1] = system: zebrafish larvae; conditions: in vivo
Procedure: Uro-I (uroporphyrin-I dihydrochloride; Frontier Scientific, Catalog #: U830-1) was initially resuspended in 0.1M NaOH and the pH was adjusted to neutral using 0.2 M Na2HPO4. Six days post fertilization (dpf), ABTL zebrafish larvae were injected via the retro-orbital route with approximately 3 nL of 7.2 mM Uro-I solution and control larvae were injected with vehicle (0.1M NaOH in 0.2M Na2HPO4). After injection, larvae were immediately transferred to Petri dishes wrapped with heavy duty aluminum foil and kept in a dark incubator, at 28.5° C., for 24 h. Where indicated, 7 dpf larvae were injected with approximately 2 nL of 0.2% w/v calcein (Sigma, Catalog #: C0875) 2 h prior to imaging.
Seven dpf AB×TL zebrafish larvae were anesthetized with tricaine-S (Syndel) and immobilized in 0.5% low melt agarose. Fluorescent z-series were captured using an Olympus FV500 confocal microscope (10× objective, confocal aperture of 300 mm) with an optical thickness of 10 mm and z-step size of 10 mm. Calcein was excited with a 488 nm argon laser and emission was captured between 505 and 525 nm. Porphyrin was excited with a 405 nm laser diode and emission was captured above 560 nm. Three-dimensional image reconstruction and quantification of fluorescent signal and bone volume were performed using Imaris 3D visualization and analysis software v7.7 (Bitplane).

[2] = system: Saos-2 cells; assay type: cell-based, human
Procedure: (§1) Saos-2 cells were plated in 12-well plates (1.5×10^5 cells/well) and allowed to attach overnight. Cells were then treated with Uro-I ([…] final concentration) or vehicle in medium containing MAC for 3 days. Experiments were conducted in a dark room and cells were kept shielded from light in a tissue culture incubator.
(§2) Etretinate (Selleck Chemicals, Houston, TX) and tretinoin (Selleck Chemicals, Houston, TX) treatment was performed as described for acitretin. In addition to being used as prophylaxis, the therapeutic effect of acitretin was evaluated. Six dpf AB×TL zebrafish larvae were injected with Uro-I and 24 hours later they were transferred to E3 medium containing […] acitretin or DMSO. Porphyrin binding, excretion and bone volume were analyzed. Saos-2 cells were treated with […] acitretin or DMSO in medium containing MAC and Uro-I.
Saos-2 cells RNA was extracted using RNeasy mini kit (Qiagen, Catalog #: 74104). and gene expression was carried using the RT^2 Profiler PCR Array for human cellular stress responses (Qiagen, Catalog #: PAHS-019ZA) following manufacturer's instructions. A previously described qPCR (Elenbaas, J. S. et al. Gastroenterology 154, 1625-1629 e1628, doi:10.1053/j.gastro.2018.01.024 (2018)) was performed for COL1A1 and SERPINH1 (IDT Integrated DNA Technologies, PrimeTime assay ID Hs.PT.58.15517795 and Hs.PT.56a.26865778, respectively).

[3] = system: Saos-2 cells; assay type: cell-based, human; remark: listed apart in the source
Procedure: Saos-2 cells were purchased from ATCC. Cells were maintained in McCoy 5A medium supplemented with 15% FBS, penicillin/streptomycin, non-essential amino acids, Hepes and L-glutamine. To induce mineralization, cells were treated with mineralization activation cocktail (MAC), consisting of 5 mM b-glycerophosphate, […] ascorbic acid and 10 nM dexamethasone. Uro-I solution preparation and treatment of zebrafish larvae and Saos-2 cells
as §1
Etretinate (Selleck Chemicals, Houston, TX) and tretinoin (Selleck Chemicals, Houston, TX) treatment was performed as described for acitretin. In addition to being used as prophylaxis, the therapeutic effect of acitretin was evaluated. […] Porphyrin binding, excretion and bone volume were analyzed. […]
Cell mineralization was quantified by ARS (Sigma Aldrich St. Louis, MO) staining as described previously (Harper, E. et al. PLoS One 12, e0188192, doi:10.1371/journal.pone.0188192 (2017)), with minor modifications. […] ARS standard curve (from 2-0.02 mM) and samples were transferred in triplicate to a 96-well plate and absorbance was measured at 405 nm.

[4] = system: uro-I injected zebrafish larvae; test: Zebrafish CEP model, therapeutic protocol (acitretin 24 hours after uro-I injection); assay type: in vivo, Zebrafish (Danio rerio); conditions: acitretin from 24 hours after uro-I, further 24 hours
Procedure: as §2

[5] = system: Saos-2 cells; test: Saos-2 immunoblotting of ER stress (BiP) and autophagy (LC3-II) markers; assay type: cell-based, human; conditions: acitretin with MAC and Uro-I, vs DMSO
Procedure: as §1, §2
Saos-2 cells were lysed in ice cold RIPA buffer (Sigma Aldrich, St. Louis, MO) with protease inhibitor cocktail (Thermo Scientific, Waltham, MA) and scraped. Whole cell lysate was kept in the dark until reducing SDS-PAGE sample buffer was added. Immunoblotting, band densitometry and mass spectrometry were conducted as described previously (Maitra, D. et al. Cell Mol Gastroenterol Hepatol 8, 659-682 e651, doi:10.1016/j.jcmgh.2019.05.010 (2019); and Maitra, D. et al. J Biol Chem 290, 23711-23724, doi:10.1074/jbc.M114.636001 (2015)). […]

[6] = system: zebrafish larvae; test: Acitretin dose-response curve, toxicity to zebrafish larvae; assay type: in vivo, Zebrafish (Danio rerio); conditions: dose-response 0.5-12.5 mM
[7] = system: uro-I injected zebrafish larvae; test: Zebrafish CEP model, prophylaxis protocol (retinoid co-administered with uro-I injection); assay type: in vivo, Zebrafish (Danio rerio); conditions: 24 hours, vs DMSO; for porphyrin fluorescence in bones (operculum and vertebrae): 10 μM in E3 medium
Procedure: Techniques that can be used to perform the methods of the invention are described by Elenbaas, J. S., et al., FASEB, 2016, 30, 1798-1810; and Cunha, J. B., Scientific Reports, 2021, 11, 9601.
Validation and characterization of acitretin as a potential treatment for CEP was performed. Six dpf ABTL zebrafish larvae injected with uro-I were immediately transferred to 10 cm plastic dishes containing 10 μM acitretin or DMSO in E3 medium (prophylaxis protocol FIG. 2A) and incubated for 24 hours in the dark at 28.5° C. Porphyrin binding to bones and bone volume were analyzed by confocal microscopy as described above. Porphyrin excretion into the medium was quantified. Uro-I-injected larvae were transferred to 96-well plates, one larva/well, […] of […] acitretin or DMSO/well. Medium was collected after 24 hours and porphyrin was quantified as described previously.
as §2

[8] = system: uro-I injected zebrafish larvae; test: High throughput drug screening (Prestwick library) in zebrafish CEP model; assay type: in vivo, Zebrafish (Danio rerio); conditions: 24 h, visual analysis vs DMSO-treated larvae, drug tested individually
Procedure: Unbiased high throughput drug screening was performed using the Prestwick library (Prestwick Chemical), which consists of 1,280 small molecules chosen by the manufacturer for their bioavailability and safety. […] Zebrafish E3 medium ([…]) was transferred to a 96-well half area imaging plate (Corning, cat. n. 3880) using a Multidrop dispenser (ThermoFisher Scientific). Compounds ([…] of 2 mM stock) were added to the wells using a multichannel plate handling robot (Biomek FX, Beckman Coulter Life Sciences). […] Control wells contained […] of DMSO.
Six dpf NHGRI-1 zebrafish larvae were injected retro-orbitally with approximately 2 nL of a solution of Uro-I (10 mM) and calcein (0.2% w/v). Immediately after injection, larvae were transferred to a 96-well test plate (two larvae in […] of E3 medium/well), including the DMSO control wells. Control larvae injected with the drug vehicle (dimethyl sulfoxide, DMSO) and calcein were transferred to E3 medium-only containing wells. Larvae were kept in the dark, at 28.5° C. After 24 h, they were anesthetized with tricaine-S, centrifuged at 500×g for two minutes and imaged using the ImageXpress Micro Cellular Imaging and Analysis System (Molecular Devices). Positive hits were selected based on visual identification of calcein signal increase and porphyrin signal decrease compared to DMSO-treated larvae. […]

[9] = acitretin in uro-I treated cells

SMILES: Cl.Cl.O=C(O)CCC1=C(CC(=O)O)c2cc3nc(cc4[nH]c(cc5[nH]c(cc1n2)c(CC(=O)O)c5CCC(=O)O)c(CC(=O)O)c4CCC(=O)O)C(CC(=O)O)=C3CCC(=O)O [Uro-I, uroporphyrin-I dihydrochloride]
- operculum and 4th vertebra volume [1]: significantly decreased
- HSPA5 expression increase [2]: 2.1 ×
- SERPINH1 expression decrease [2]: 3.3 ×
- SOD3 expression increase [2]: 2.8 ×
- reduction in COL1A1 expression [2]: 90%
- mineralization (ARS staining) [3]: decreased significantly

SMILES: COc1cc(C)c(/C=C/C(C)=C/C=C/C(C)=C/C(=O)O)c(C)c1C [acitretin]
- bone porphyrin fluorescence [4]: did not decrease
- operculum volume [4]: increased
- uro-I excretion to the medium [4]: increased
- SOD3 downregulation [2, 9]: 3.8 fold
- Upregulation of COL1A1 [2, 9]: 1.7 ×
- Upregulation of SERPINH1 [2, 9]: 5.4 ×
- BiP level (ER stress response) [5]: reducing BiP level
- LC3-II (autophagic flux) [5]: reducing LC3-II
- toxicity to zebrafish larvae [6]: without being toxic
- porphyrin fluorescence in bones (operculum and vertebrae) [7]: significantly reduced
- operculum volume (bone volume) [7]: no effect
- uro-I excretion into the medium [7]: increased
- uro-I-mediated loss of mineralization (ARS staining) ([3]; 10 mM acitretin in medium containing MAC and Uro-I): did not prevent
- uro-I accumulation in bones (screening hit) [8]: decreased uro-I accumulation in bones

SMILES: CCOC(=O)/C=C(C)/C=C/C=C(C)/C=C/c1c(C)cc(OC)c(C)c1C [etretinate]
- porphyrin fluorescence in bones (operculum and vertebrae) [7]: did not demonstrate significant activity

SMILES: CC1=C(/C=C/C(C)=C/C=C/C(C)=C/C(=O)O)C(C)(C)CCC1 [tretinoin, all trans-retinoic acid]
- porphyrin fluorescence in bones (operculum and vertebrae) [7]: significantly reduced
- operculum volume (bone volume) [7]: did not prevent loss in bone volume
